Source: US20160376659A1, “Breast Cancer Biomarker” (The University of Manchester, priority 2015, published 2016)

Legend:
[1] = tested on: CD44^+CD24^low+ BCSCs; conditions: Azzam et al., 2013; cited from earlier work
[2] = tested on: Notch target genes HEY1 and HES1; assay: HEY1 and HES1 expression in TAMR, FULVR and parental MCF-7 cells; type: cell-based, human; conditions: TAMR and FULVR cell lines; 72 h
Method: MCF7, T47D and ZR-75-1 cell lines were purchased from American Tissue Culture Collection (ATCC) and cultured in DMEM/F-12, GlutaMAX (Gibco) with 10% FBS (Gibco). […] MCF7 resistant cell lines were authenticated by comparative karyotyping to ATCC-derived MCF7. Total RNA was extracted using the RNeasy Plus Mini Kit (QIAGEN, 74104) and the concentration and purity determined using an ND-1000 spectrophotometer (NanoDrop Technologies). Reverse transcription of 1 μg of RNA was performed with Oligo(dT) using the TaqMan Reverse Transcription Reagents from Applied Biosystems (N8080234). Samples were incubated on a thermal cycler (MJ Research) for 10 minutes at 25° C., 30 minutes at 48° C. and 5 minutes at 95° C. Quantitative real-time PCR reactions were set up in triplicate in 384-well plates and performed on the 7900 PCR machine (Applied Biosystems) using TaqMan® Universal PCR Master Mix (Applied Biosystems) and probes from Universal Probe Library (Roche). Conditions used for amplification of cDNA fragments were as follows: 95° C. for 5 min, 40 cycles of amplification-95 C for 15 sec, 60 C for 1 min. The expression levels were calculated using the ΔΔCt method and normalised to the housekeeping genes 36B4 and GAPDH. The sequences of the primers and probes used can be found in the table below.

[3] = tested on: CBF1-Notch transcriptional activity; assay: Notch transcriptional assay (10×CBF1-luciferase reporter); type: cell-based, human; conditions: TAMR and FULVR cell lines; 72 h
Method: MCF7 resistant cell lines were authenticated by comparative karyotyping to ATCC-derived MCF7. To measure the activation of Notch dependent transcription, cells were transfected with CBF1 firefly luciferase reporter (containing 10 copies of a CBF1 consensus sequence) and CMV-Renilla luciferase reporter. Plasmids were incubated with […] (Roche, 06366244001) in a ratio of 3:1 (μl of […] of DNA) in OptiMEM (Life Technologies, 11058-021) for 15 minutes, before addition to the culture media. After 48 hours cells were lysed with 1× Passive lysis buffer (5×, Promega, E 1941), put on the rocker for 15 minutes and luminescence was assayed with the Dual-Glo Luciferase assay system (Promega, E2920) following manufacturer's instructions. Luciferase activity was measured using a luminometer (Promega, Glomax Multi+ Detection System with Instinct Software). Luminescence of the firefly luciferase was normalised to that of the renilla luciferase.

[4] = tested on: ALDH1A1; conditions: short-term administration to patients; analysis of published microarray data; cited from earlier work
[5] = tested on: NOTCH4-ICD and JAG1; assay: NOTCH4-ICD and JAG1 Western Blot in PDX treated in vivo; design: species or system mice; conditions: 14 day window treatment of PDXs in vivo
Method: Tamoxifen citrate (Sigma, T9262, 10 mg/kg/day) and RO4929097 (Cellagen Technology, 3 mg/kg/day) were administered by oral gavage (0.1 ml/dose) on a five day from seven basis (weekends excluded) for fourteen days. Tamoxifen citrate and RO4929097 were prepared in 1% carboxymethylcellulose (Sigma, C9481) dissolved in distilled water. Fulvestrant (kindly provided by Astrazeneca, 200 mg/kg/week) was administered by subcutaneous injection (0.1 ml/dose) on a weekly basis for fourteen days. The HBC×22 and HBC×34 tamoxifen-resistant PDXs have been established by our collaborators in the Curie Institute (Cottu el al, 2014) and were treated for fourteen days in the presence or absence of the gamma-secretase inhibitor RO4929097 (10 mg/kg/day, oral gavage). Xenografts were collected in ice cold DMEM media for live cell assays, histological analysis and RNA and protein extraction. Patient-derived xenograft single cell suspension was obtained using a collagenase-hyaluronidase mixture for digestion (Stem Cell Technologies).
Proteins were extracted with Protein Lysis Buffer (25 mM HEPES, 50 mM NaCl, 30 mM NaPP, 50 mM NaF, 1% Triton-X-100, 10% Glycerol, 5 mM EDTA, Protease Inhibitor cocktail, 1 μM PMSF). […] Protein concentrations were assessed using the BCA Protein Assay Kit (Thermo Scientific, 23225). […]

[6] = tested on: NOTCH4-ICD and JAG1; assay: NOTCH4-ICD and JAG1 Western Blot in MCF-7 cells; type: cell-based, human; conditions: short term treatment of MCF-7 cells in vitro
Method: MCF7, T47D and ZR-75-1 cell lines were purchased from American Tissue Culture Collection (ATCC) and cultured in DMEM/F-12, GlutaMAX (Gibco) with 10% FBS (Gibco). Cells were treated for 3 days or 6 days with ethanol (control), 10^-6M 4-OH-tamoxifen or 10^−7M fulvestrant and/or with 10 μM of gamma-secretase inhibitor RO4929097 (Cellagen Technology) or DMSO (control).
Proteins were extracted with Protein Lysis Buffer (25 mM HEPES, 50 mM NaCl, 30 mM NaPP, 50 mM NaF, 1% Triton-X-100, 10% Glycerol, 5 mM EDTA, Protease Inhibitor cocktail, 1 μM PMSF). Lysates were placed on a rotator for 1 hour at 4° C., then were centrifuged at 10000 g at 4° C. for 10 min, and supernatants were collected. Protein concentrations were assessed using the BCA Protein Assay Kit (Thermo Scientific, 23225). Proteins were separated on a 10% gel (Biorad, 456-1033) by SDS-PAGE at 200V for 1 hour, and then were transferred on polyvinylidene difluoride (PVDF) membranes (BioRad, 170-4157) at 25 V/1,300 mA for 15 min using a Trans Blot Turbo (BioRad, 170-4155). Membranes were blocked in a solution of PBS containing 0.05% Tween-20 and 5% skimmed milk (Marvel) for 1 h at room temperature and primary antibodies were incubated overnight at 4° C. […]

CC(C)(C(=O)NCC(F)(F)C(F)(F)F)C(=O)N[C@@H]1C(=O)Nc2ccccc2-c2ccccc21 [RO4929097]
mammosphere and tumor formation [1]: reduce
HEY1 and HES1 expression [2]: inhibited
CBF1-Notch transcriptional activity [3]: inhibited

C[C@]12CC[C@@H]3c4ccc(O)cc4C[C@@H](CCCCCCCCC[S+]([O-])CCCC(F)(F)C(F)(F)F)[C@H]3[C@@H]1CC[C@@H]2O (some centres unmarked) [fulvestrant]
expression of the ALDH1A1 gene in breast tumors [4]: significantly increased
NOTCH4-ICD and JAG1 protein expression [5]: up-regulated
NOTCH4-ICD and JAG1 protein expression [6]: up-regulated

CC/C(=C(\c1ccccc1)c1ccc(OCCN(C)C)cc1)c1ccccc1 [tamoxifen, (Z)-2-[4-(1,2-diphenylbut-1-enyl)phenoxy]-N,N-dimethylethanamine]
NOTCH4-ICD and JAG1 protein expression [5]: up-regulated
NOTCH4-ICD and JAG1 protein expression [6]: up-regulated
